Common to all, as to test: Cytostatic cell culture assay (GI50), SRB
What all share (assay type): cell-based

One test relates to A549. The conditions noted are these: Homo sapiens, A549, 120 h; 5 days incubation. The text has this: (§1) The assay is based on quantification of cell counts by a colorimetric detection of the cell associated proteins. The assay relies on the ability of sulforhodamine B (SRB) to bind to protein components of cells that have been fixed to tissue-culture plates by trichloroacetic acid (TCA). SRB is a bright-pink aminoxanthene dye with two sulfonic groups that bind to basic amino-acid residues under mild acidic conditions, and dissociate under basic conditions. As the binding of SRB is stoichiometric, the amount of dye extracted from stained cells is directly proportional to the cell mass.
(§2) Cell lines: All cell lines were obtained from ATCC (Manassas, Va.). Cultivation media containing Glutamax, and trypsin were purchased from Invitrogen (Carlsbad, Calif.). Doxorubicin, Clofarabine, TCA and SRB were from Sigma-Aldrich (St. Louis, Mo.). Gemcitabine was obtained from Moravek Biochemicals (Brea, Calif.)
(§3) • 1. Trypsinize the sub-confluent cells, count them, and adjust the cell concentrations according to the cell counts listed in Table 1. • 2. Distribute the cells into the 96-well plates in 150 μL of media. Incubate the plates overnight in humidified CO2 incubator at 37° C. • 3. Fix one plate of each cell line with TCA. Discard the cultivation media from the plates by flicking them gently and add 100 ul cold 10% (vol/vol) TCA to each well. Incubate the plates at 4 degree refrigerator for 1 hour. Discard TCA from the plates by flicking them gently. Rinse plates four times in a washing basin containing tap water. Store the plates at room temperature. These plates represent cell counts on day zero. • 4. Prepare a set of medium solutions containing various concentrations of tested compounds by making 5-fold serial dilutions in 96-well plate. Add 50 μL of the diluted compounds per well. Include controls with untreated cells and cells treated with doxorubicin, clofarabine and gemcitabine. • 5. Incubate the plates for 5 days at 37° C. • 6. Fix the plates with TCA. Discard the cultivation media from the plates by flicking them gently and add 100 ul cold 10% (vol/vol) TCA to each well. Incubate the plates at 4 degree refrigerator for 1 hour. Discard TCA from the plates by flicking them gently. Rinse plates four times in a washing basin containing tap water. • 7. Remove excess water by tapping the plates face down, gently on a paper towel. Allow the plates to air-dry at room temperature. • 8. Add 100 ul of 0.057% SRB solution in 1% (vol/vol) acetic acid to each well of the plates fixed with TCA on day zero and five. Leave at room temperature for 30 minutes. • 9. Flick the plates gently to discard SRB. Rinse the plates four times with 1% (vol/vol) Acetic Acid. • 10. Store the plates at 37 degree incubator to facilitate faster drying. • 11. Once the plates are completely dry, add 200 ul of 10 mM Tris base solution (pH 10.5) to each well. Leave at room temperature for 30 minutes for SRB to solubilize. • 12. Measure the OD at 500 nm in a microplate reader • 13. Calculate the percentage of cell-growth inhibition using the next formula: % of control cell growth=100×(ODsample−mean ODday0)/(ODneg control−mean ODday0)
(§4) For GI50 determination, plot a dose-response curve between the compound concentration and percent of growth inhibition. GI50 values can be derived by fitting dose-response curves using sigmoidal dose response equation.

A further test concerns NCI-H23. The conditions noted are these: Homo sapiens, NCI-H23, 120 h; 5 days incubation.
Text: as §1, §2, §3, §4

The next test has as its system HCT-15. The conditions noted are these: Homo sapiens, HCT-15, 120 h; 5 days incubation.
Text: as §1, §2, §3, §4

The test system of another test is Du-145. The conditions noted are these: Homo sapiens, DU-145, 120 h; 5 days incubation.
Text: as §1, §2, §3, §4

In another test the test system is Hs-578. The conditions noted are these: Hs578, 120 h; 5 days incubation.
Text: as §1, §2, §3, §4

Another test deals with PC3. The conditions noted are these: Homo sapiens, PC-3, 120 h; 5 days incubation.
Text: as §1, §2, §3, §4

The subject of a further test is BT-549. The conditions noted are these: Homo sapiens, BT-549, 120 h; 5 days incubation.
Text: as §1, §2, §3, §4

A further test has as its system HCT-116. The conditions noted are these: Homo sapiens, HCT-116, 120 h; 5 days incubation.
Text: as §1, §2, §3, §4

For orientation: GI50 means the concentration that inhibits growth by half.

Take `COCCOc1nc(N)nc2c1ncn2CCOCP(=O)(O)O` [Example 11, {2-[2-Amino-6-(2-methoxy-ethoxy)-purin-9-yl]-ethoxymethyl}-phosphonic acid]: the GI50 in the test with A549 was 11000 nM; with NCI-H23, 1980 nM; in the test with HCT-15 it was over 10000 nM; in the test on Du-145 it was 805 nM; in the test with Hs-578 it was 5100 nM; with PC3 it was 3760 nM. Moreover, the figures for the GI50 in the test with BT-549 and with HCT-116 were over 10000 nM and 11000 nM, respectively.

With `Nc1nc(NC2CC2)c2ncn(CCOCP(=O)(O)O)c2n1` [Example 12, [2-(2-Amino-6-cyclopropylamino-purin-9-yl)-ethoxymethyl]-phosphonic acid], the concentration for 50% growth inhibition (GI50) with A549 was found to be 35000 nM; in the test on NCI-H23, 2190 nM; in the test on HCT-15 it was 38000 nM; in the test with Du-145, 1230 nM; in the test with Hs-578 it was 18000 nM; in the test with PC3, 6100 nM. For the same molecule, the GI50 amounted to 70000 nM with BT-549 and 38000 nM in the test on HCT-116.

`CCCCOC(=O)[C@H](C)NP(=O)(COCCn1cnc2c(OCCC)nc(N)nc21)N[C@@H](C)C(=O)OCCCC` [Example 13]: the GI50 in the test with A549 is 52 nM; in the test on NCI-H23 it was 4 nM; in the test with HCT-15, 1090 nM; with Du-145, 2 nM; with Hs-578 it was 105 nM; with PC3 it was 11 nM. The values for the 50% growth inhibitory concentration (GI50) with BT-549 and in the test on HCT-116 were 61 nM and 13 nM, respectively.

Turning to `CCCOc1nc(N)nc2c1ncn2CCOCP(=O)(N[C@@H](C)C(=O)OCC)N[C@@H](C)C(=O)OCC` [Example 14], the GI50 in the test on A549 is 381 nM; in the test with NCI-H23, 29 nM; with HCT-15, over 10000 nM; in the test with Du-145, 28 nM; in the test with Hs-578 it was 202 nM; in the test with PC3, 275 nM. Besides, the values for the GI50 in the test with BT-549 and in the test on HCT-116 were 266 nM and 488 nM, respectively.

With `CCCOc1nc(N)nc2c1ncn2CCOCP(=O)(N[C@@H](Cc1ccccc1)C(=O)OCC)N[C@@H](Cc1ccccc1)C(=O)OCC` [Example 15], the GI50 in the test with A549 stood at 81 nM; with NCI-H23, 7 nM; with HCT-15 it was 1280 nM; in the test with Du-145, 3 nM; in the test on Hs-578, 112 nM; in the test with PC3, 26 nM. Besides, the concentration for 50% growth inhibition (GI50) came to 102 nM in the test with BT-549 and 18 nM with HCT-116.

As to `CCCOc1nc(N)nc2c1ncn2CCOCP(=O)(N[C@@H](C)C(=O)OC(C)C)N[C@@H](C)C(=O)OC(C)C` [Example 16], the GI50 in the test on A549 is 736 nM; in the test on NCI-H23, 92 nM; in the test on HCT-15 it was over 10000 nM; in the test with Du-145, 67 nM; in the test with Hs-578 it was 870 nM; with PC3, 591 nM. The GI50 in the test on BT-549 was found to be 1830 nM; in the test on HCT-116 it was 1320 nM.

For the molecule `CCCCOC(=O)[C@H](Cc1ccccc1)NP(=O)(COCCn1cnc2c(OCCC)nc(N)nc21)N[C@@H](Cc1ccccc1)C(=O)OCCCC` [Example 17], the GI50 with A549 stood at 5 nM; in the test on NCI-H23, 2 nM; with HCT-15, 336 nM; in the test with Du-145, 1 nM; in the test with Hs-578, 5 nM; in the test with PC3, 6 nM. Besides, the GI50 in the test with BT-549 stood at 17 nM; in the test with HCT-116 it was 4 nM.

Regarding `CCCOc1nc(N)nc2c1ncn2CCOCP(=O)(N[C@H](C)C(=O)OC)N[C@H](C)C(=O)OC` [Example 18], the 50% growth inhibitory concentration (GI50) in the test with A549 amounted to 9900 nM; with NCI-H23, 2330 nM; in the test with HCT-15, 24000 nM; in the test on Du-145, 1280 nM; with Hs-578, 9100 nM; with PC3, 5400 nM. Moreover, the results for the GI50 with BT-549 and with HCT-116 were 7600 nM and 9000 nM, respectively.

Consider `CCCOc1nc(N)nc2c1ncn2CCOCP(=O)(N[C@@H](Cc1ccccc1)C(=O)OCC(C)C)N[C@@H](Cc1ccccc1)C(=O)OCC(C)C` [Example 19], for which the GI50 in the test on A549 amounted to 4 nM; in the test on NCI-H23, 1 nM; in the test on HCT-15 it was 467 nM; in the test with Du-145 it was 1 nM; in the test with Hs-578 it was 5 nM; in the test with PC3 it was 10 nM. Moreover, the values for the GI50 in the test on BT-549 and in the test with HCT-116 were 53 nM and 5 nM, respectively.

Turning to `CCCOc1nc(N)nc2c1ncn2CCOCP(=O)(N1CCC[C@H]1C(=O)OCc1ccccc1)N1CCC[C@H]1C(=O)OCc1ccccc1` [Example 20], the GI50 was 530 nM in the test on A549; 30 nM in the test with NCI-H23; 2350 nM with HCT-15; 27 nM in the test on Du-145; 132 nM with Hs-578; 111 nM in the test on PC3. For the same molecule, the GI50 was found to be 167 nM in the test with BT-549 and 264 nM in the test with HCT-116.

Turning to `CCCOc1nc(N)nc2c1ncn2CCOCP(=O)(N1CCC[C@H]1C(=O)OC)N1CCC[C@H]1C(=O)OC` [Example 22], the GI50 in the test on A549 was 640 nM; in the test with NCI-H23, 38 nM; with HCT-15, over 10000 nM; in the test with Du-145, 35 nM; in the test on Hs-578 it was 82 nM; in the test on PC3 it was 121 nM. The GI50 in the test on BT-549 amounted to 116 nM; with HCT-116, 194 nM.

In the case of `CCCOC(=O)[C@@H]1CCCN1P(=O)(COCCn1cnc2c(OCCC)nc(N)nc21)N1CCC[C@H]1C(=O)OCCC` [Example 23], the GI50 with A549 amounted to 317 nM; in the test with NCI-H23, 3 nM; in the test on HCT-15, 2470 nM; in the test with Du-145, 1 nM; in the test on Hs-578 it was 4 nM; in the test with PC3, 11 nM. Moreover, the GI50 in the test on BT-549 came to 7 nM; in the test with HCT-116 it was 28 nM.

As to `CCCOc1nc(N)nc2c1ncn2CCOCP(=O)(N1CCC[C@H]1C(=O)OC(C)C)N1CCC[C@H]1C(=O)OC(C)C` [Example 24], the GI50 is 3820 nM in the test on A549; 124 nM in the test on NCI-H23; over 10000 nM with HCT-15; 138 nM in the test with Du-145; 452 nM in the test on Hs-578; 634 nM with PC3. Moreover, the GI50 with BT-549 worked out at 386 nM; in the test on HCT-116 it was 979 nM.

In the case of `CCCCOC(=O)[C@@H]1CCCN1P(=O)(COCCn1cnc2c(OCCC)nc(N)nc21)N1CCC[C@H]1C(=O)OCCCC` [Example 25], the GI50 in the test with A549 was found to be 450 nM; in the test with NCI-H23, 2 nM; in the test with HCT-15, 1490 nM; with Du-145, 2 nM; with Hs-578 it was 8 nM; in the test with PC3, 16 nM. In addition, the GI50 in the test on BT-549 was 15 nM; in the test with HCT-116, 43 nM.

On to `CCCCCCOC(=O)[C@@H]1CCCN1P(=O)(COCCn1cnc2c(OCCC)nc(N)nc21)N1CCC[C@H]1C(=O)OCCCCCC` [Example 26], for which the GI50 was found to be 1050 nM with A549; 9 nM in the test on NCI-H23; 1950 nM with HCT-15; 2 nM with Du-145; 97 nM with Hs-578; 81 nM in the test with PC3. Besides, the GI50 with BT-549 worked out at 67 nM; in the test with HCT-116 it was 119 nM.

Turning to `CCCCOC(=O)[C@H](C)NP(=O)(COCCn1cnc2c(OC)nc(N)nc21)N[C@@H](C)C(=O)OCCCC` [Example 27], the GI50 with A549 was 26 nM; in the test on NCI-H23 it was 4 nM; with HCT-15 it was 2370 nM; in the test on Du-145 it was 2 nM; with Hs-578, 53 nM; in the test on PC3, 13 nM. The GI50 in the test on BT-549 was determined as 33 nM; in the test with HCT-116 it was 23 nM.

Turning to `CCOC(=O)[C@H](C)NP(=O)(COCCn1cnc2c(OC)nc(N)nc21)N[C@@H](C)C(=O)OCC` [Example 28], the GI50 is 736 nM in the test with A549; 28 nM in the test with NCI-H23; over 10000 nM with HCT-15; 47 nM in the test on Du-145; 380 nM in the test with Hs-578; 381 nM with PC3. Further, the GI50 was found to be 573 nM with BT-549 and 859 nM in the test with HCT-116.

Values taken from patent publication US8163718B2, “Nucleoside analogues containing phosphonate or phosphonamide groups” (Gilead Sciences, Inc., priority 2008, dated 2012).
